Results taken from ChEMBL document CHEMBL2073987, “The sulphonylurea glibenclamide inhibits multidrug resistance protein (MRP1) activity in human lung cancer cells” (Br J Pharmacol, 2001).

Columns and labels:
[1] = target: ATP-binding cassette sub-family C member 2 (Rattus norvegicus, UniProt Q63120); experiment: TP_TRANSPORTER: inhibition of Carboxy-2',7'-dichlorofluorescein efflux (Calcein: 0.5 micro;M, Glibenclamide, 50-100 uM, increase intercellular CF level by ~2 fold) in isolated rat hepatocytes; type: functional, cell-based, Hepatocyte
[2] = target: Multidrug resistance-associated protein 1 (Homo sapiens, UniProt P33527); experiment: TP_TRANSPORTER: inhibition of Calcein efflux (Calcein: 0.5 micro;M, Glibenclamide: 50-100 uM, increase intercellular calcein level by ca 4 fold ) in GLC4/Sb30 cells; type: functional, cell-based
Multidrug resistance-associated protein 1, sequence (P33527 whole entry): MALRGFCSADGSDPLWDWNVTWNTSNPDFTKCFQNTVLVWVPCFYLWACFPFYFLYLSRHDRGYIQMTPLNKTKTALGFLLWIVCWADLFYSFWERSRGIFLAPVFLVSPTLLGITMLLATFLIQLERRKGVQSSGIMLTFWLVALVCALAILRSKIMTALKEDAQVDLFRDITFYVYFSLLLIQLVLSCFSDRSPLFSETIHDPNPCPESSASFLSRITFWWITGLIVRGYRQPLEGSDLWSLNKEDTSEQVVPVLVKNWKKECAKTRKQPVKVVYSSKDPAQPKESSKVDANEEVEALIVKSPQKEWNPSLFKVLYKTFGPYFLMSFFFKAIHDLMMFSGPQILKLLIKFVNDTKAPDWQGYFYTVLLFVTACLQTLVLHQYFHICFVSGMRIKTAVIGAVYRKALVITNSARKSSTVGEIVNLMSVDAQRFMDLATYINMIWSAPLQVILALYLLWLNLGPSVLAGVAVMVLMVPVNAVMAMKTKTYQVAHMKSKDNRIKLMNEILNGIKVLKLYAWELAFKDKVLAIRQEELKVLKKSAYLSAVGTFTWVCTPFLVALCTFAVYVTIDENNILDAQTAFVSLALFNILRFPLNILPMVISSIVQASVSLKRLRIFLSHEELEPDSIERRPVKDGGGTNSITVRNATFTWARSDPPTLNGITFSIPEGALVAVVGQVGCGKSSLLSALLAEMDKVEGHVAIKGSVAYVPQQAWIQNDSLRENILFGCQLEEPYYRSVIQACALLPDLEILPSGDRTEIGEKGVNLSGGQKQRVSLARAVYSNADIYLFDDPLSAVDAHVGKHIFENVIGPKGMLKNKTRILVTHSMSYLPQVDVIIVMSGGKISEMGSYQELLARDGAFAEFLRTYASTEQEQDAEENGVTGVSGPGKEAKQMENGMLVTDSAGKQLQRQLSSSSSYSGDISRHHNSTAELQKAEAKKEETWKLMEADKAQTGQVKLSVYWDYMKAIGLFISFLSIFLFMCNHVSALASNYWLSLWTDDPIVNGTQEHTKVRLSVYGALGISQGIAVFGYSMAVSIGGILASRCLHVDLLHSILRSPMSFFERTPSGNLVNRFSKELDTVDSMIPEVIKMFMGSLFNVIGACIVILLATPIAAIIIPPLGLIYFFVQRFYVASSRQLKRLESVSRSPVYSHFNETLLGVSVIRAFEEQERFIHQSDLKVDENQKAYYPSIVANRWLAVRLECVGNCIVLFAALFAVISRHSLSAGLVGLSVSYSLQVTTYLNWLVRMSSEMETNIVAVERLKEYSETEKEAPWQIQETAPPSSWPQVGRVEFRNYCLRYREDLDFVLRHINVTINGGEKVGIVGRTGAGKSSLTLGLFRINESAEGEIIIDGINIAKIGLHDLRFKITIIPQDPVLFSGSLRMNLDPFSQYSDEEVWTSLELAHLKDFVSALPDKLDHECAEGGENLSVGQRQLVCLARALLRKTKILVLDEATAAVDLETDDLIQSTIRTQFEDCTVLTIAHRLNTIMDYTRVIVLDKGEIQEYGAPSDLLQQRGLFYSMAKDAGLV

ATP-binding cassette sub-family C member 2, sequence (Q63120 whole entry): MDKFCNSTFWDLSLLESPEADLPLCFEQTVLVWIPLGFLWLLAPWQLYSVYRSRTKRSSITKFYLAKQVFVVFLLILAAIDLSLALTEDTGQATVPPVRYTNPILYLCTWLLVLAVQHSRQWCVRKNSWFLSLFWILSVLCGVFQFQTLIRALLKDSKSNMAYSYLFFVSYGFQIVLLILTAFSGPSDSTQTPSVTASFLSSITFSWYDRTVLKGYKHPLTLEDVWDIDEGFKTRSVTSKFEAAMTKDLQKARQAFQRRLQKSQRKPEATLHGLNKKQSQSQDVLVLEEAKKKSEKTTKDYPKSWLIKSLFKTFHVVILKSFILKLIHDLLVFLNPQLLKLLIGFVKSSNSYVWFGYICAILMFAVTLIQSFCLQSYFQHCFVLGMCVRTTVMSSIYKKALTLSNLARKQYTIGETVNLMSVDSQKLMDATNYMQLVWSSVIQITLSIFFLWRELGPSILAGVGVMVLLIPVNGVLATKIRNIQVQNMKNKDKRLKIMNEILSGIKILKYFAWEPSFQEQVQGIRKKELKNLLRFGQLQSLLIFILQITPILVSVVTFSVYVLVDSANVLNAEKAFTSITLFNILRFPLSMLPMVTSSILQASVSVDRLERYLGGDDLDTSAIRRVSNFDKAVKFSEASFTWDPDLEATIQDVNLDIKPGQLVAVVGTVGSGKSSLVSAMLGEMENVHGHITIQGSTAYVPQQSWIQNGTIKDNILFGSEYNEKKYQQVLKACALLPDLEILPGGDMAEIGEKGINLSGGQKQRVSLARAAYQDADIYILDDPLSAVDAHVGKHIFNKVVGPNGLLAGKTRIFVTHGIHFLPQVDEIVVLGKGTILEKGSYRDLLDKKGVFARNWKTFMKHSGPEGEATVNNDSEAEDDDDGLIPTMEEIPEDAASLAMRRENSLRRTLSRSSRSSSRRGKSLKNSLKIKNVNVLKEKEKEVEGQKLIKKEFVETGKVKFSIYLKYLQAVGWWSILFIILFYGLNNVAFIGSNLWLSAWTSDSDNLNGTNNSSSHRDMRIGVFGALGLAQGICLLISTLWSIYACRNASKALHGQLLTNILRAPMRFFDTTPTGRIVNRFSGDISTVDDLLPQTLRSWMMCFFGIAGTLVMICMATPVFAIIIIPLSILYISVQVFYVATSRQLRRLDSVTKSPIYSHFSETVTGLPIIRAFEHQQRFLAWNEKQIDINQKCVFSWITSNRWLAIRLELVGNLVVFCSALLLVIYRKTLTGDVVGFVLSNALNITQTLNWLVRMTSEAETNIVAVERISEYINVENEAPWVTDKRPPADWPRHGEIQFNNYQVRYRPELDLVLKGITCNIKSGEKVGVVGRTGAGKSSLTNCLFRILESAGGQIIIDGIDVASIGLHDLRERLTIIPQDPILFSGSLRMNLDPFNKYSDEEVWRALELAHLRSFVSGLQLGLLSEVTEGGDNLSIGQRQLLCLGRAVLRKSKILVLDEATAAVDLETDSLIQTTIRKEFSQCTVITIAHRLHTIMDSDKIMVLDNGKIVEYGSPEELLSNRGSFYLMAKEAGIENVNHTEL

- Activity [1]: inhibitor [+]
- Activity [2]: inhibitor [+]
Compound: COc1ccc(Cl)cc1C(=O)NCCc1ccc(S(=O)(=O)NC(=O)NC2CCCCC2)cc1 [GLYBURIDE]
